Assay results: US20230077584A1, “METHODS AND COMPOSITIONS FOR MODULATING ENTEROENDOCRINE CELLS” (Flagship Pioneering Innovations VI, LLC, priority 2021, published 2023)

What was measured:
[1] = test system: mouse intestinal organoids; details: ENR media supplemented with factor; based on published data (Yin et al); cited from earlier work
[2] = test system: mouse intestinal organoids; test: mouse small intestinal organoid differentiation, lineage markers by Q-PCR; type: cell-based; details: ENR media, Q-PCR after 5 days of treatment, FIG. 2
Source text: Cryopreserved mouse intestinal organoids derived from small intestine were obtained from Stem Cell Technologies. The organoids were thawed and propagated in Intesticult Growth Medium (Mouse) (purchased from Stem Cell Technologies) following the company's instructions. Briefly, ˜100 organoid fragments/well are embedded in Matrigel domes in 24-well plates and growth media is renewed every 2-3 days. The organoids are passaged every 5-6 days in 1:4 ratio. To assess the potential of the predicted perturbations to induce the enteroendocrine cell lineage during organoid differentiation, we established an in vitro assay to induce the various intestinal lineages (enterocytes, goblet cells, Paneth cells, enteroendocrine cells) based on published data (Yin et al, Nat Methods. 2014 January; 11(1):106-12). Briefly, organoid fragments are embedded in Matrigel and grow in custom-made media in the presence of EGF, Noggin, Rspondin (ENR) supplemented with the indicated factors (Table 4) that are known to induce markers of the various intestinal lineages. The expression of markers and the induction of the various cell lineages was assessed by Q-PCRs after 5 days of treatments (FIG. 2). Further characterization of the organoids will be performed by immunofluorescence staining and flow cytometry. […]

Compound	Cell lineage (factors known to induce markers of intestinal lineages) [1]	expression of chromogranin A and chromogranin B genes, markers of enteroendocrine cells [2]
C[C@H](NC(=O)Cc1cc(F)cc(F)c1)C(=O)N[C@H](C(=O)OC(C)(C)C)c1ccccc1 [DAPT]	Enteroendocrine Cells, Paneth	induces the expression of chromogranin A and chromogranin B genes
Cc1ccc2nc(NC(=O)CSc3nc4c(c(=O)n3-c3ccccc3)SCC4)sc2c1 [IWP2]	Enterocytes, Enteroendocrine Cells	
